≈ marks a conversion by molar mass, not a printed value.
Experiments:
Assay type in all cases: functional
[1] = tested on: Mycobacterium tuberculosis; experiment: Antitubercular activity against rifampicin-resistant Mycobacterium tuberculosis after 21 days by two fold agar dilution method; conditions: 504 h
[2] = tested on: Mycobacterium tuberculosis; experiment: Potency index, ratio of MIC for rifampicin to MIC for test compound for antitubercular activity against rifampicin-resistant Mycobacterium tuberculosis after 21 days by two fold agar dilution method
[3] = tested on: Mycobacterium tuberculosis; experiment: Potency index, ratio of MIC for GTFX to MIC for test compound for antitubercular activity against rifampicin-resistant Mycobacterium tuberculosis after 21 days by two fold agar dilution method
[4] = tested on: Mycobacterium tuberculosis; experiment: Potency index, ratio of MIC for LVFX to MIC for test compound for antitubercular activity against rifampicin-resistant Mycobacterium tuberculosis after 21 days by two fold agar dilution method
[5] = tested on: Mycobacterium tuberculosis; experiment: Potency index, ratio of MIC for isoniazid to MIC for test compound for antitubercular activity against rifampicin-resistant Mycobacterium tuberculosis after 21 days by two fold agar dilution method
[6] = tested on: Mycobacterium tuberculosis; experiment: Antibacterial activity against multidrug resistant Mycobacterium tuberculosis ATTC 27294 by Alamar Blue assay
[7] = tested on: Mycobacterium tuberculosis; experiment: Antibacterial activity against multidrug resistant Mycobacterium tuberculosis after 7 days by two fold dilution assay; conditions: 168 h

| Compound | MIC [6] [µg/mL] | MIC [7] [µg/mL] | also measured |
| --- | --- | --- | --- |
| C[C@H]1COc2c(N3C[C@H]4CCCN[C@H]4C3)c(F)cc3c(=O)c(C(=O)O)cn1c23 |  |  | MIC [1]: 0.2 to 1.7 µg/mL (≈ 0.516 to 4.39 µM); Ratio [2]: >=2.7 - 250; Ratio [3]: >=2.7 - 250; Ratio [4]: >=2.7 - 250; Ratio [5]: >=2.7 - 250 |
| O=C(O)c1cn(C2CC2)c2cc(N3CCNCC3)c(F)cc2c1=O [CIPROFLOXACIN] | 0.1 to 0.6 (≈ 0.302 to 1.81 µM) |  |  |
| COc1c(N2CCNC(C)C2)c(F)cc2c(=O)c(C(=O)O)cn(C3CC3)c12 (stereo not given) [GATIFLOXACIN] | 0.1 to 0.6 (≈ 0.266 to 1.6 µM) |  |  |
| NNC(=O)c1ccncc1 [ISONIAZID] |  | > 128 |  |
| COc1c(N2C[C@@H]3CCCN[C@@H]3C2)c(F)cc2c(=O)c(C(=O)O)cn(C3CC3)c12 [MOXIFLOXACIN] | 0.1 to 0.6 (≈ 0.249 to 1.49 µM) |  |  |
| CO[C@H]1/C=C/O[C@@]2(C)Oc3c(C)c(O)c4c(O)c(c(/C=N/N5CCN(C)CC5)c(O)c4c3C2=O)NC(=O)/C(C)=C\C=C\[C@H](C)[C@H](O)[C@@H](C)[C@@H](O)[C@@H](C)[C@H](OC(C)=O)[C@@H]1C [RIFAMPIN] |  | 32 (≈ 38.9 µM) |  |

From ChEMBL document CHEMBL4229334, “Fluoroquinolone derivatives and their anti-tubercular activities” (Eur J Med Chem, 2018)
